Key:
[1] = human, in vivo, cited from earlier work
[2] = test system: CMV immediate early promoter; test: CMV promoter-driven luciferase (pCMV-Ren, pCMV-FF) in 293T cells; type: cell-based, cytomegalovirus; settings: for CMV-driven Renilla luciferase expression: pCMV-Ren
Experimental: Plasmids were introduced into 2×10^5 293T cells by transfection using Lipofectamine 2000 (Invitrogen) according to the manufacturer's instructions. Compounds (such as CPX or DEF) were added simultaneously. Cells were harvested at 12 hr post-transfection, washed with PBS, lysed in 0.15 ml of 1× passive lysis buffer (Promega), and assayed for luciferase activity using the Promega dual luciferase reporter system according to the manufacturer's instructions. Jurkat cells (1×10^6 cells) were transfected using FuGENE 6 (Roche) according to the manufacturer's instructions and assayed in a similar fashion after pelleting.
293T cells were selected as a model system to explore the relationship between the drugs, eIF5A and HIV gene expression. These cells efficiently transcribe HIV-1 genes from molecular clones as well as subviral constructs, allowing for early detection of changes in HIV gene expression. To establish the system, assays were carried out to examine the effect of CPX and DEF on the expression of firefly luciferase (FF) from the HIV-1 molecular clone, pNL4-3-LucE-, engineered to carry the FF gene in place of the viral nef gene. The molecular clone was transfected into 293T cells together with the pCMV-Ren vector that expresses Renilla luciferase (Ren) from the cytomegalovirus (CMV) immediate early promoter as a control for transfection efficiency and non-specific effects of the compounds. Dual luciferase assays were conducted at 12 hr post-transfection and results are expressed as relative luciferase activity (FF:Ren). […] Assays therefore were carried out to characterize the action of CPX and DEF on eIF5A and HIV gene expression in 293T cells during the first 12 to 24 hr of drug treatment.

H9-HIV cells = test: Mitochondrial membrane potential (JC-1) in H9-HIV cells; type: cell-based; settings: for Δψ collapse at low drug concentrations: 5 and 15 μM CPX, 50 and 100 μM DEF; for collapse of Δψ, infected versus uninfected cells: 24 hr, 30 μM CPX, 200 μM DEF
Experimental: (§1) The potential across the mitochondrial membrane of live cells was determined flow-cytometrically with the lipophilic cationic fluorochrome JC-1 (5,5′,6,6′-tetrachloro-1,1′,3,3′-tetraethylbenzimidazolcarbocyanine iodide) immediately after sample harvest (BD™ Mitoscreen Kit, BD Biosciences; San Diego, Calif.). DNA fragmentation was quantified flow-cytometrically, using a TUNEL (terminal deoxynucleotide transferase dUTP nick end-labeling) assay (APO-BRDU™; Phoenix Flow Systems; San Diego, Calif.) and a dual-color assay for annexin V binding and 7-AAD exclusion (Annexin V-PE 7-AAD Apoptosis Detection Kit I™; BD Biosciences Pharmingen, San Jose, Calif.). The apoptotic volume decrease of cells was assessed by the reduction of their diameter (VI-CELL™; Beckman Coulter; Fullerton, Calif.).
(§2) Next the effect of the drugs on apoptosis in H9 and H9-HIV cells was examined. Both CPX and DEF increased the collapse of Δψ in a manner that was dose-dependent and accentuated by viral infection (FIGS. 8E and F). […] Thus, exposure to CPX or DEF counteracted the HIV-mediated reduction of Δψ collapse and rendered infected cells more susceptible than uninfected cells to an early step in drug-induced apoptosis.

HIV-1 = test: Persistent PBMC infection model, long-term culture with drug withdrawal; type: cell-based; settings: for rebound of HIV-1 infection after drug withdrawal: off-drug inspection period extending to 12 weeks
Experimental: Uninfected (5×10^6 cells) and infected PBMCs (0.5×10^6 cells) were co-incubated in a 25 ml culture flask at a final concentration of 0.22×10^6 cells/ml. Cultures were allowed to establish productive infection, defined by medium p24 at or above 250 pg/ml, and CPX was added. Cultures were replenished with Medium B and freshly isolated uninfected PBMCs on alternate days. For replacement of Medium B, half of the supernatant was gently exchanged without disturbing the cells, and the drug concentration was adjusted appropriately. For replacement with freshly isolated, stimulated and uninfected PBMCs, half of the cells and supernatant were removed and replaced with 2.5×10^6 cells in the proper volume of Medium B, with adjustment of the drug concentration. Cell-free supernatants were saved for p24 and viral RNA measurements.
p24 core antigen in the supernatant was quantified by ELISA (Retrotek HIV-1 p24™; ZeptoMetrix Corp.; Buffalo, N.Y.). HIV-1 RNA copy number in the supernatant was determined with a PCR-based and FDA-approved assay (Amplicor HIV-1 Monitor™; Roche Diagnostics Corp.; Indianapolis, Ind.). IFN-γ and IL-10 in the supernatant were determined by cytometric bead array (Human Th1/Th2 Cytokine Kit II™; BD Biosciences Pharmingen, San Jose, Calif.).
Next, assays were carried out to examine whether CPX can control established HIV-1 infection in primary cells. Long-term PBMC cultures were employed as a model for on-going, self-sustaining HIV-1 production. As before, infection was initiated by exposure to patient isolate-infected cells. To emulate the bulk flow of susceptible cells from a generative into an infective compartment that occurs in vivo, a replenishment protocol was followed. Freshly isolated uninfected primary cells were infused into the infected cultures at regular intervals during multi-month monitoring of viral parameters. HIV-1 RNA reached the range of 10^6 copies/ml within a week of patient isolate inoculation, and this robust infection was sustained for >3 months (FIG. 14; open squares).

uninfected H9 cells = test: Mitochondrial membrane potential (JC-1) in uninfected H9 cells; type: cell-based; settings: 30 μM CPX; 200 μM DEF
Experimental: as §1, §2

[3] = CPX 30 μM from day 7 for one month, isolate #990,010

Row | SMILES | systemic absorption [1] | expression from pCMV-FF (construct I) [2] | CMV-driven Renilla luciferase expression [2] | Δψ collapse at low drug concentrations (H9-HIV cells) | collapse of Δψ, infected versus uninfected cells (H9-HIV cells) | day after which viral RNA was not detected (HIV-1; CPX 30 μM from day 7) [days] | day after which viral protein was not detected (HIV-1; CPX 30 μM from day 7) [days] | decline in HIV-1 RNA levels (HIV-1; CPX 30 μM from day 7) | level of p24 (HIV-1; [3]) | level of viral RNA (HIV-1; [3]) | rebound of HIV-1 infection after drug withdrawal (HIV-1) | concentrations needed for enhanced Δψ collapse (uninfected H9 cells) | concentration in serum ([1]; po) [µM] | plasma levels ([1]; po)
1 | Cc1cc(C2CCCCC2)n(O)c(=O)c1 [CPX, 6-cyclohexyl-1-hydroxy-4-methylpyridin-2[1H]-one] | miniscule systemic absorption | unaffected | no effect on CMV-driven Renilla luciferase expression | enhanced Δψ collapse even at low drug concentrations | significantly increased collapse of Δψ compared to uninfected cells | > 38 | > 21 | four orders of magnitude | to the limit of detectability | to the limit of detectability | productive infection does not return after drug removal | higher concentrations were required | – | –
2 | Cc1c(O)c(=O)ccn1C [DEF, 3-hydroxy-1,2-dimethylpyridin-4(1H)-one] | – | unaffected | no effect on CMV-driven Renilla luciferase expression | enhanced Δψ collapse even at low drug concentrations | significantly increased collapse of Δψ compared to uninfected cells | – | – | – | – | – | productive infection does not return after drug removal | higher concentrations were required | ≥ 250 | up to 350 μM
